Data published in patent publication US20080199550A1, “Novel Anticancer Agent, Methods for Obtaining the Same and Pharmaceutical Compositions Thereof” (priority 2005, published 2008).
In brackets after ≈: the same amount, converted by molar mass.

Columns and labels:
[1] = system: MDA cells; assay: Cell proliferation assay (trypan blue exclusion); assay type: cell-based, human
Procedure: (§1) For assaying the inhibitory effects of the samples on cell proliferation, cancer cells were seeded into a 96-well tissue culture plate at a cell density of 5×10^4 cells per well and incubated with plant extract at different concentrations for 24 hours in a humidified atmosphere containing 5% CO2 at 37° C. The viable and dead cell counts were performed as per trypan blue exclusion method and results were recorded.

[2] = system: Colo-320 DM; assay: Cell proliferation assay (trypan blue exclusion); assay type: cell-based, human
Procedure: as §1

[3] = system: MCF-7; assay: Cell proliferation assay (trypan blue exclusion); assay type: cell-based, human
Procedure: as §1

[4] = system: MCF-7; assay: Cell viability (MTT) assay; assay type: cell-based, human
Procedure: The screening of samples was done in human breast cancer cells (MCF-7, MDA-MB-468, ZR-75-1 and SK-Br-3), human liver carcinoma cells (HepG2), human colon adinocacinoma cells (Colo320 D-M), human acute promylocytic leukemia cells (HL-60), mouse sarcoma cells (Sarcoma 180), mouse melanoma cells (C57/B1/6J). Cells were maintained in DMEM, RPMI 1640(colo320-D-M and HL-60) and Mecoy's medium (SKBr-3) supplemented with 10% Fetal Calf Serum (FCS) and antibiotics (100 IU/ml of penicillin and 100 μg/ml of streptomycin) till they achieved 80% confluence in a humidified atmosphere containing 5% CO2 at 37° C. The cultures were passaged upon confluence on a regular basis. […] Morphological changes in the cells were recorded
It was performed after removal of the culture supernatants; MTT assay was performed to assess the viability of cells. […] The plates were read on a micro plate reader using a reference wavelength of 690 nm and a test wavelength of 540 nm.
For calculation of IC50 value, the data were analyzed by no leaner regression (Curve Fit) analysis using Graph Pad Prism version 4.00. The results of cell proliferation and other parameters were analyzed by one-way ANOVA with Bonferroni's Multiple Comparison Test.

[5] = system: NMU induced breast tumours; assay: N-nitroso-N-methylurea induced model of breast cancer in rats; assay type: in vivo, rat; conditions: 25 mg/kg po daily 3 weeks then 12.5 mg/kg i.p. twice a week 5 weeks, comparable to tamoxifen
Procedure: A standard protocol for induction of breast cancer in female Sprague-Dawley rats (7 to 8 weeks of age and weight range of 80-100 gms) with a single dose of N-nitroso-N-methylurea (NMU) was used for the study. The rats were obtained from animal facility, R & D center, The Himalaya Drug Company, Bangalore. They were maintained on standard pellet diet (Lipton India Ltd., Mumbai) and water ad libitum. Around 60 rats were selected and NMU was administered intraperitoneally at a dose of 50 mg/kg b.wt. NMU was dissolved in saline and pH adjusted to 4.8. Animals were observed daily to assess general health. […]
Three longest possible diameters were recorded, and tumour volume (cm^3) was calculated using the formula LX W X B.
The variations of the total surface areas of tumors between day 1 and day 57 were analyzed using a two-way ANOVA for repeated measurements. […]

[6] = system: MCF-7 cells; assay: Assay for influence of estrogen; assay type: cell-based, human; conditions: with or without estradiol, 24 h
Procedure: The efficacy of HAC-1 was studied to assess the hormone dependent or independent activity on cell proliferation. For this purpose MCF-7 cells were initially seeded in a 24 well plate with DMEM supplemented with 10% FCS and incubated for 24 hours in a humidified atmosphere with 5% CO2 and 95% air at 37° C. The cells were then shifted to charcoal striped medium supplemented with 1% bovine albumin serum (BSA,) with or with out the estradiol and HAC-1 and incubated further for a period of 24 h. After the incubation the cell population in each of the groups was recoded by trypan blue exclusion method.

[7] = system: cancer cells; assay: Cell proliferation assay, all the cell lines; assay type: cell-based
Procedure: as §1

[8] = system: HL-60 cells; assay: Genomic DNA extraction / DNA fragmentation; assay type: cell-based, human; conditions: 7 ug/ml, 48 h
Procedure: For assessing the extent of damage to the cellular DNA following the HAC-1 treatment, the cells under investigation were seeded in 25 cm^2 tissue culture flasks at a cell density of 1×10^6 cells per flask and incubated for different time points in a humidified atmosphere containing 5% CO2 at 37° C. The cells after incubation with samples at 7 μg/ml for 24, 48 and 72 hours were pelleted, The cell pelleted were washed with the PBS and incubated in a shaking hot water bath at 37 C. for 1-2 hours with lysis buffer for mammalian DNA extraction. The lysate was then treated with 1.5 volumes of Isopropyl alcohol and the DNA pelleted by centrifuging at […] for 20 minutes The DNA was dissolved in Tris EDTA (TE pH 8.00) and was run on 2% agarose and the visualized with the help of a gel documentation system (Pharmacia) and recorded.

[9] = system: MCF-7; assay: DNA integrity assay (acredine orange, fluorescent microscope); assay type: cell-based, human; conditions: end of 48 h of incubation
Procedure: It was observed by direct visualization under fluorescent microscope. The cell pellets were treated with acredine orange (t 1:10 dilution) and directly visualized under fluorescent microscope under UV spectrum and the changes in the DNA were documented.

[10] = system: S-180 cells; assay: Sarcoma bearing mice; assay type: in vivo, mouse
Procedure: Adult, male age-matched Swiss albino mice (29-34 g) housed in groups of four to five in plastic cages, received laboratory rodent chow and tap water ad libitum 14 days prior to experimentation in a temperature controlled room with a 12-h dark/light cycle. S-180 cells maintained in the peritoneal cavity of male mice were used for testing the antitumour activity. The cell suspension was diluted to 1.18×10^8 cells/ml, and 0.1 ml of the suspension was inoculated intra-peritoneally into the mice. The tumour-bearing mice were treated, 24 hrs after inoculation, by i.p. injections of 10 and 20 mg/kg of HAC-01 (2 mg/ml with vehicle in physiological saline solution) at the dosage of 0.05 and 0.1 ml/10 gm b.wt. of mouse every other day for 14 days (Total 7 injections). The control group was treated with vehicle in 0.9% NaCl. The mice b.wt. was recorded at 0,4,8, 11,16,18,20,22 and 24th day.
All data were presented as mean ±SD. Statistical significance was evaluated by t test. P<0.05 is considered as statistically significant.
White blood cell (WBC) and differential leukocyte counts were measured from freely flowing tail vein blood of normal control, sarcoma control and HAC-01 treated groups.

[11] = molecular target: T1, telomerase (Homo sapiens, UniProt O14746); assay: Telo TAGGG Telomerase PCR ELISA; assay type: cell-based; conditions: MCF-7; 6.25 μg/ml; 48 and 72 hours
T1 construct: endogenous in cells; host or cells: MCF-7
T1 sequence (O14746 whole entry): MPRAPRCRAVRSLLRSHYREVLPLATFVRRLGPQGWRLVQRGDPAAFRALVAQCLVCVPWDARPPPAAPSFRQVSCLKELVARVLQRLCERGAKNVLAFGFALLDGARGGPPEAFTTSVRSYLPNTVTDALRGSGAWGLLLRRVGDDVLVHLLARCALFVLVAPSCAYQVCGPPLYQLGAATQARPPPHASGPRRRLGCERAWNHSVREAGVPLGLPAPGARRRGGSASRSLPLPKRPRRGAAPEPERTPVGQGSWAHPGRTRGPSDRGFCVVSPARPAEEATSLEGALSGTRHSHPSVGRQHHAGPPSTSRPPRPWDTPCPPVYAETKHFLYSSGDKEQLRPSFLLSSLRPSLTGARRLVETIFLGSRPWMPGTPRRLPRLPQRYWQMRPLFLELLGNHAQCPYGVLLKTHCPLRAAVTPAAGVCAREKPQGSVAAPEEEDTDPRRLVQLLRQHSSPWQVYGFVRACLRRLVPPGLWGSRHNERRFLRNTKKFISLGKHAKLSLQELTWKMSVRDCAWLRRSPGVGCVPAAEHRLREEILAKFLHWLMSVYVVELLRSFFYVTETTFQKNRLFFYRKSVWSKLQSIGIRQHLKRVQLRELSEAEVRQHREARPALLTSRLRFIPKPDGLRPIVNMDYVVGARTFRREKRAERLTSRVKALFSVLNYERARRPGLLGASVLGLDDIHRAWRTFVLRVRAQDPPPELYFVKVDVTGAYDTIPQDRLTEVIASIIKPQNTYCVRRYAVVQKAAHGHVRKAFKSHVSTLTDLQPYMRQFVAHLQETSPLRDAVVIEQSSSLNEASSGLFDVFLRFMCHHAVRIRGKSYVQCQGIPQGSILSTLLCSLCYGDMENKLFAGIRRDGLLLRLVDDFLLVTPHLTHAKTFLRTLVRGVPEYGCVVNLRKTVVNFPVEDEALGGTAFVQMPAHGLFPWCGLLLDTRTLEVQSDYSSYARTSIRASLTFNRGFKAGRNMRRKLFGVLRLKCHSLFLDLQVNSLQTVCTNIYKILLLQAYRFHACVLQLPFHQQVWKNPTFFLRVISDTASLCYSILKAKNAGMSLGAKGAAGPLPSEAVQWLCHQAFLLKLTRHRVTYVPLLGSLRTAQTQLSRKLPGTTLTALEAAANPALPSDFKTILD
Procedure: In the present study the telomerase activity of the cancer cell were assessed following the treatment with the samples with the help of Telomerase PCR ELISA (Roche, Germany). Cells were plated in a 24 well plate (2×10^5 cells per well) in DMEM supplemented with FBS (10%) and incubated for 48 hours and 72 hours in a humidified atmosphere with 95% air and 5% CO2 at 37° C. with (6.25 μg/ml) or with out (Control) the samples. Cells of the positive control group were treated with paclitaxel at 1.75 μg/ml and incubated as above. This experiment was done in human breast cancer cells (MCF-7). The cell pellets were washed with PBS and resuspended in lysis solution (200 μl) and the debris was pelleted and the supernatant was transferred to a fresh tube. The Telo TAGGG Telomerase PCR ELISA (Roche) was carried as per the manufacturer's protocol. The samples were added to a PCR amplification tube containing reaction mixture (Tris Buffer with telomerase substrate, nucleotides, Taq polymersase biotin labeled primer 1 and primer 2 specific to telomere fragment) and nuclease free water and allowed for elongation for 33 cycles in a Thermal Cycler (MJ Research, PTC 100). […] The reaction was stopped with the help of 1N H2SO4 and was read in an ELISA plate reader at a test wavelength of 450 nm and reference wavelength of 690 nm.

IC50 [4] [µg/mL] | telomerase activity compared to control [11] | Compound | effective concentration to induce 50% inhibition of proliferation [1] [µg/mL] | effective concentration to induce 50% inhibition of proliferation [2] [µg/mL] | effective concentration to induce 50% inhibition of proliferation [3] [µg/mL] | tumor volume [5] | influence of estrogen on drug activity [6] | cell proliferation compared to control ([7]; all the cell lines, p<0.001 and p<0.01) | apoptosis (DNA pattern) [8] | cells found apoptosed completely [9] | differential count of WBC (neutrophils, lymphocytes) ([10]; sarcoma bearing mice, 20 mg/kg, i.p.) | weight gain ([10]; tumour bearing mice, i.p. 10 and 20 mg/kg every other day for 14 days) | growth inhibition ([7]; at 1.75 μg/ml)
1.62 (≈ 6.47 µM) | inhibition in the telomarase activity | CC1=C2C3OC(=O)C(C)C3(O)CCC2(C)CCC1 (stereo not shown) [HAC-1, 7-hydroxyeudesm-4-en-6,12-olide] | 2 | 2 | 4 | significantly reduced the tumor volume | drug activity is independent of estrogen | significantly inhibited | induced apoptosis | more than 80% | restore these altered parameters to near normal | significantly reduced the weight gain | –
– | – | CC(=O)O[C@H]1C(=O)[C@@]2(C)[C@H]([C@H](OC(=O)c3ccccc3)[C@]3(O)C[C@H](OC(=O)[C@H](O)[C@@H](NC(=O)c4ccccc4)c4ccccc4)C(C)=C1C3(C)C)[C@]1(OC(C)=O)CO[C@@H]1C[C@@H]2O [paclitaxel, reference compound] | – | – | – | – | – | – | – | – | – | – | marked growth inhibition
